Structures can show the parent of a compound that is named as a salt. Where two headings read alike, the source gives them in different places.
Target: SARS-CoV-2 3CLpro (Severe acute respiratory syndrome coronavirus 2, UniProt P0DTD1)
Experiment: biochemical
Format: biochemical
Design: Replicate_1 / Replicate_2 / mean / mean (LOPAC_screen_w_protease): unit not given here
Conditions: for inhibition at 5 µM: 4 h
[1] = LOPAC1280 primary screen with protease, 5 µM compound, replicate 1, read-out: Replicate_1 (LOPAC_screen_w_protease)
[2] = LOPAC1280 primary screen with protease, 5 µM compound, replicate 2, read-out: Replicate_2 (LOPAC_screen_w_protease)
[3] = LOPAC1280 primary screen with protease, 5 µM compound, mean of two replicates
[4] = sheet LOPAC_screen_w_protease, LOPAC1280 primary screen at 5 µM, with protease, mean of the two replicates
[5] = sheet LOPAC_screen_w_protease, LOPAC1280 primary screen at 5 µM, with protease, replicate 1
[6] = sheet LOPAC_screen_w_protease, LOPAC1280 primary screen at 5 µM, with protease, replicate 2
[7] = sheet LOPAC_screen_w_protease, LOPAC1280 primary screen with protease, 5 µM compound, mean of the two replicates
[8] = sheet LOPAC_screen_w_protease, LOPAC1280 primary screen with protease, 5 µM compound, replicate 1
[9] = sheet LOPAC_screen_w_protease, LOPAC1280 primary screen with protease, 5 µM compound, replicate 2
[10] = sheet LOPAC_screen_w_protease, LOPAC1280 at 5 µM, mean of two replicates
[11] = sheet LOPAC_screen_w_protease, LOPAC1280 at 5 µM, replicate 1
[12] = sheet LOPAC_screen_w_protease, LOPAC1280 at 5 µM, replicate 2
[13] = sheet LOPAC_screen_w_protease, primary screen with protease, 5 µM, mean of two replicates
[14] = sheet LOPAC_screen_w_protease, primary screen with protease, 5 µM, replicate 1
[15] = sheet LOPAC_screen_w_protease, primary screen with protease, 5 µM, replicate 2

Compound: CC(C)(C)c1cc(C=C(C#N)C#N)cc(C(C)(C)C)c1O [Tyrphostin A9]
- mean (LOPAC_screen_w_protease): 2.02
- inhibition at 5 µM (read-out: Replicate_1 (LOPAC_screen_w_protease)): 2.73%
- inhibition at 5 µM (read-out: Replicate_2 (LOPAC_screen_w_protease)): 1.31%

Compound: Nc1nnc(-c2cccc(Cl)c2Cl)c(N)n1 [Lamotrigine]
- inhibition at 5 µM [1]: 1.42%
- inhibition at 5 µM [2]: 1.78%
- mean (LOPAC_screen_w_protease) [3]: 1.603

Compound: CCCCC[C@H](CC(=O)NO)C(=O)N[C@H](C(=O)N1CCC[C@H]1CO)C(C)C [Actinonin]
- inhibition at 5 µM [1]: 1.42%
- inhibition at 5 µM [2]: 1.48%
- mean (LOPAC_screen_w_protease) [3]: 1.4498

Compound: CN1[C@@H]2CC[C@H]1C[C@@H](OC(c1ccccc1)c1ccccc1)C2 [Benztropine mesylate]
- inhibition at 5 µM (sheet LOPAC_screen_w_protease, primary screen with protease, compound at 5 µM, mean of two replicates, read-out: mean): 3.08%
- inhibition at 5 µM (sheet LOPAC_screen_w_protease, primary screen with protease, compound at 5 µM, replicate 1, read-out: Replicate_1): 0.913%
- inhibition at 5 µM (sheet LOPAC_screen_w_protease, primary screen with protease, compound at 5 µM, replicate 2, read-out: Replicate_2): 5.26%

Compound: Oc1ccc(Cn2cc[nH]c2=S)cc1 [1-(4-Hydroxybenzyl)imidazole-2-thiol]
- inhibition at 5 µM (sheet LOPAC_screen_w_protease, primary screen at 5 µM, mean of two replicates, read-out: mean (LOPAC screen with protease)): 35.7%
- inhibition at 5 µM (sheet LOPAC_screen_w_protease, primary screen at 5 µM, replicate 1, read-out: Replicate_1 (LOPAC screen with protease)): 39.5%
- inhibition at 5 µM (sheet LOPAC_screen_w_protease, primary screen at 5 µM, replicate 2, read-out: Replicate_2 (LOPAC screen with protease)): 31.9%

Compound: Cl.NCCc1ccc(O)cc1 [4-Hydroxyphenethylamine hydrochloride]
- mean [4]: 0.878
- Replicate_1 [5]: 0.5582
- Replicate_2 [6]: 1.1978

Compound: Oc1ccc2c3c1O[C@H]1c4[nH]c5ccccc5c4C[C@@]4(O)[C@@H](C2)N(CC2CC2)CC[C@]314 [Naltrindole hydrochloride]
- inhibition at 5 µM (read-out: Replicate_1): 3.59%
- inhibition at 5 µM (read-out: Replicate_2): 2.54%
- inhibition at 5 µM (read-out: mean): 3.06%

Compound: Cl.O=c1cc(N2CCOCC2)oc2c(-c3ccccc3)cccc12 [LY-294,002 hydrochloride]
- mean [7]: 5.665
- Replicate_1 [8]: 6.484
- Replicate_2 [9]: 4.845

Compound: COc1cc([C@@H]2c3cc4c(cc3[C@H](O)[C@H]3COC(=O)[C@H]23)OCO4)cc(OC)c1OC [Podophyllotoxin]
- inhibition at 5 µM (read-out: Replicate_1): 3.42%
- inhibition at 5 µM (read-out: Replicate_2): 4.17%
- inhibition at 5 µM (read-out: mean): 3.8%

Compound: CCCOc1ccccc1-c1nc2nn[nH]c2c(=O)[nH]1 [Zaprinast]
- inhibition at 5 µM [1]: 2.02%
- inhibition at 5 µM [2]: 1.12%
- mean (LOPAC_screen_w_protease) [3]: 1.567

Compound: CNCCc1ccc(O)c(O)c1.Cl [N-Methyldopamine hydrochloride]
- mean [10]: 1.304
- Replicate_1 [11]: 0.8088
- Replicate_2 [12]: 1.799

Compound: Ro 8-4304
- mean [13]: 0.161
- Replicate_1 [14]: -1.418
- Replicate_2 [15]: 1.74

Compound: CCCn1c(=O)c2[nH]c(C3CCCC3)nc2n(CCC)c1=O [8-Cyclopentyl-1,3-dipropylxanthine]
- mean (LOPAC_screen_w_protease) [3]: 1.568
- Replicate_1 (LOPAC_screen_w_protease) (LOPAC1280 primary screen with protease, 5 µM compound, replicate 1): 3.936
- Replicate_2 (LOPAC_screen_w_protease) (LOPAC1280 primary screen with protease, 5 µM compound, replicate 2): -0.7999

Compound: CC(=O)N[C@@H](CS)C(=O)O [N-Acetyl-L-Cysteine]
- inhibition at 5 µM (read-out: Replicate_1): 0.481%
- inhibition at 5 µM (read-out: Replicate_2): 0.723%
- inhibition at 5 µM (read-out: mean): 0.602%

Compound: Br.COc1ccc(-c2ccc(=N)n(CCCC(=O)O)n2)cc1 [SR-95531]
- Replicate_1 (LOPAC_screen_w_protease): 2.0939
- Replicate_2 (LOPAC_screen_w_protease): 0.7216
- mean (LOPAC_screen_w_protease): 1.408

Compound: CN1CCN(C2Cc3ccccc3Sc3ccc(Cl)cc32)CC1.O=C(O)/C=C\C(=O)O (racemic) [(±)-Octoclothepin maleate]
- mean [7]: 4.928
- Replicate_1 [8]: 3.609
- Replicate_2 [9]: 6.247

Compound: Oc1ccc(/C=C/c2cc(O)cc(O)c2)cc1 [Resveratrol]
- inhibition at 5 µM (read-out: Replicate_2): -6.92%

Compound: CCCCS(=N)(=O)CCC(N)C(=O)O (racemic) [DL-Buthionine-[S,R]-sulfoximine]
- mean [4]: 0.7813
- Replicate_1 [5]: 0.9596
- Replicate_2 [6]: 0.6029

Compound: Cl.Cl.c1ccc(CCCN2CCN(CCOC(c3ccccc3)c3ccccc3)CC2)cc1 [GBR-12935 dihydrochloride]
- mean [10]: 0.9925
- Replicate_1 [11]: 2.277
- Replicate_2 [12]: -0.2925

Compound: Cl.Cl.NCCNS(=O)(=O)c1cccc2cnccc12 [H-9 dihydrochloride]
- mean [13]: 0.3892
- Replicate_1 [14]: 0.9278
- Replicate_2 [15]: -0.1494

Source: publication PMC7587356, “High-Throughput Screening for Inhibitors of the SARS-CoV-2 Protease Using a FRET-Biosensor” (Molecules, 2020)
